Literature values as cited in patent US20040106561A1, “Health supplement” (Novogen Research Pty. Ltd., priority 1992, published 2004).

System: oestrogen receptors
Conditions: for oestrogenic activity: in vitro and in vivo studies, descending order genistein, biochanin A, equol, daidzein, formononetin

| SMILES | oestrogenic activity | oestrogenic/anti-oestrogenic activity and SHBG-stimulating capacity relative to daidzein and formononetin (animal and in vitro studies) |
| --- | --- | --- |
| O=c1c(-c2ccc(O)cc2)coc2cc(O)ccc12 [daidzein] | oestrogenic activity | – |
| COc1cc2c(=O)c(-c3ccc(O)cc3)coc2cc1O [glycitein] | non-oestrogenic | – |
| CC(C(=O)c1ccc(O)cc1O)c1ccc(O)cc1 (stereo not shown) [O-desmethylangolensin] | only very weakly oestrogenic | – |
| Oc1ccc([C@H]2COc3cc(O)ccc3C2)cc1 [equol] | oestrogenic activity | – |
| COc1ccc(-c2coc3cc(O)cc(O)c3c2=O)cc1 [biochanin A] | oestrogenic activity | – |
| O=c1c(-c2ccc(O)cc2)coc2cc(O)cc(O)c12 [genistein] | oestrogenic activity | approximately 10 times |
